Results: ChEMBL document CHEMBL1149701, “Aaptamines as sortase A inhibitors from the tropical sponge Aaptos aaptos” (Bioorg Med Chem Lett, 2007)
Converted amounts (≈) assume the structure as drawn.

How the values were obtained:
Staphylococcus aureus [1] = experiment: Antimicrobial activity against Staphylococcus aureus Newman; type: functional
Sortase A = target: T1, Sortase A (Staphylococcus aureus, UniProt Q9S446); experiment: Inhibition of SrtA
T1 sequence (Q9S446 whole entry): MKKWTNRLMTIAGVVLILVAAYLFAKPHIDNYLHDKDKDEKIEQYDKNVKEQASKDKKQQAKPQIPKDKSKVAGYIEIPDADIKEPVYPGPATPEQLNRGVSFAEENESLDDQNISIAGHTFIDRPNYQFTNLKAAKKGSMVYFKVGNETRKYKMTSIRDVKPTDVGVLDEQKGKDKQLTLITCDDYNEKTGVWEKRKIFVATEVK

Staphylococcus aureus [2] = experiment: Inhibition of Staphylococcus aureus Newman adhesion to fibronectin; type: functional, organism-based
Staphylococcus aureus [3] = experiment: Inhibition of Staphylococcus aureus SKM12 adhesion to fibronectin in relative to wild type; type: functional; parameters: scale not given: the % may be the effect or the level left

Row | Structure (SMILES) | MIC (Staphylococcus aureus [1]) [µg/mL] | IC50 (Sortase A) [µM] | Activity (Staphylococcus aureus [2]) | Activity (Staphylococcus aureus [3]) [%]
1 | COc1cc2ccnc3c2c(c1OC)NC=C3 [AAPTAMINE] | > 200 | 103 | – | –
2 | COc1ccc2cc3[n+](cc2c1OC)CCc1cc2c(cc1-3)OCO2.[Cl-] [BERBERINE CHLORIDE] | 100 | 23.4 | – | –
3 | Oc1cc2ccnc3c2c(c1O)NC=C3 [DEMETHYLAAPTAMINE] | 25 (≈ 125 µM) | 85.9 | – | –
4 | COC1=Cc2ccnc3ccnc(c23)C1=O [DEMETHYLOXY-AAPTAMINE] | 25 (≈ 118 µM) | 94.7 | – | –
5 | COc1cc2ccnc3c2c(c1O)N(C)C=C3 [ISOAAPTAMINE] | 50 (≈ 219 µM) | 16.2 | Dose-dependent effect | 99
